Where “and” joins values, the source holds several entries; their conditions need not be identical. Equal values may be shown once. Inconclusive results are not listed. Calls of active or inactive are those of the source. The rule behind the calls is not given here.

The values that follow come from PubChem BioAssay AID588371 (Southern Research Specialized Biocontainment Screening …, 2011).

Tested on in the first assay: not listed separately
Description: WNV inhibition in infected cells – cell-based, EC_1, probe candidates, dose response (AID 588371). The following applies: West Nile virus-infected cells, antiviral inhibition; at 50 µM (top of the series).
As for `O=C(CSc1nc2ccccc2c(=O)n1-c1cc(Cl)cc(Cl)c1)Nc1nccs1`, the inhibition (commonly the change of the read-out against control, counted positive when it falls) is 18.5% (inactive).

Regarding `O=C(CSc1nc2cccc(F)c2c(=O)n1-c1ccc(F)c(F)c1)Nc1ccc2c(c1)CCC2`, the inhibition was 1.72% (inactive).

With `Cc1cnc(NC(=O)CSc2nc3ccccc3c(=O)n2-c2ccccc2)s1`, the inhibition was -1.61% (inactive).

For the compound `O=C(CSc1nc2ccccc2c(=O)n1-c1cc(Cl)cc(Cl)c1)NC1CCc2ccccc21` (stereo not given), the inhibition was 11.3% (inactive).

Take `O=C(CSc1nc2cccc(F)c2c(=O)n1-c1ccc(Cl)c(F)c1)Nc1ccc2c(c1)CCC2`: the inhibition was -1.63% (inactive).

For the compound `O=C(CCSc1nc2cccc(F)c2c(=O)n1-c1cc(F)c(F)c(F)c1)Nc1ccc2c(c1)CCC2`, the inhibition was 9.08% (inactive).

With `O=C(CSc1nc2ccccc2c(=O)n1-c1ccccc1)Nc1nc(-c2ccccc2)cs1`, the inhibition is 0.7% (inactive).

Take `O=C(CSc1nc2ccccc2c(=O)n1-c1ccc(Cl)c(Cl)c1)Nc1cccc2c1CCC2`: the inhibition was -1.69% (inactive).

Regarding `O=C(CSc1nc2cccc(F)c2c(=O)n1-c1ccccc1)Nc1ccc2ncsc2c1`, the inhibition is 1.43% (inactive).

With `O=C(CSc1nc2cccc(F)c2c(=O)n1-c1ccccc1)Nc1ccc2c(c1)CCC2`, the inhibition was -0.4% (inactive).

Still in this assay, the particulars now being: West Nile virus-infected cells, antiviral inhibition; at 100 µM (top of the series).
Regarding `O=C(CCCSc1nc2cccc(F)c2c(=O)n1-c1cc(F)c(F)c(F)c1)Nc1ccc2c(c1)CCC2`, the inhibition was -2.94% (inactive).

Regarding `O=C(CCCSc1nc2cccc(F)c2c(=O)n1-c1ccccc1)Nc1ccc2c(c1)CCC2`, the inhibition is -2.02% (inactive).

In the case of `O=C(CSc1nc2ccccc2c(=O)n1-c1ccccc1)Nc1ccc2ncsc2c1`, the inhibition was -0.65% (inactive).

`O=C(CSc1nc2cccc(F)c2c(=O)n1-c1ccccc1)Nc1cccc2ccccc12`: the inhibition is -1.94% (inactive).

On to `O=C(CSc1nc2cccc(F)c2c(=O)n1-c1ccccc1)NC1CCCc2ccccc21` (stereo not given), for which the inhibition was -0.94% (inactive).

For the compound `O=C(CSc1nc2cccc(F)c2c(=O)n1-c1ccc(F)c(Br)c1)Nc1ccc2c(c1)CCC2`, the inhibition is -2.48% (inactive).

Consider `O=C(CSc1nc2ccccc2c(=O)n1-c1ccccc1)NC1CCc2ccccc21` (stereo not given), for which the inhibition was -0.61% (inactive).

Consider `O=C(CSc1nc2ccccc2c(=O)n1-c1ccccc1)Nc1cccc2ccccc12`, for which the inhibition is -1.05% (inactive).

`O=C(CCCCSc1nc2cccc(F)c2c(=O)n1-c1ccc(F)c(F)c1)Nc1ccc2c(c1)CCC2`: the inhibition is 0.09% (inactive).

Turning to `O=C(CCCSc1nc2ccccc2c(=O)n1-c1ccccc1)Nc1ccc2c(c1)CCC2`, the inhibition was -0.62% (inactive).

Consider `O=C(CCCCSc1nc2cccc(F)c2c(=O)n1-c1ccccc1)Nc1ccc2c(c1)CCC2`, for which the inhibition was -1.05% (inactive).

On to `O=C(CSc1nc2cccc(F)c2c(=O)n1-c1ccccc1)Nc1ccc2c(c1)OCO2`, for which the inhibition is 0.09% (inactive).

With `O=C(CCSc1nc2cccc(F)c2c(=O)n1-c1ccc(F)c(Br)c1)Nc1ccc2c(c1)CCC2`, the inhibition was -1.52% (inactive).

Turning to `O=C(CSc1nc2ccccc2c(=O)n1-c1ccc(Cl)c(Cl)c1)Nc1cccc2ccccc12`, the inhibition was -1.85% (inactive).

Regarding `O=C(CSc1nc2ccccc2c(=O)n1-c1ccccc1)Nc1nc2cc(Cl)ccc2o1`, the inhibition was 8.31% (inactive).

Regarding `O=C(CSc1nc2ccccc2c(=O)n1-c1cc(Cl)cc(Cl)c1)Nc1cccc2ccccc12`, the inhibition was -0.85% (inactive).

Consider `O=C(CCSc1nc2ccccc2c(=O)n1-c1ccc(Cl)c(Cl)c1)Nc1ccc2c(c1)CCC2`, for which the inhibition is -2.58% (inactive).

`O=C(CCCSc1nc2cccc(F)c2c(=O)n1-c1ccc(Cl)c(Cl)c1)Nc1ccc2c(c1)CCC2`: the inhibition was -2.38% (inactive).

Regarding `O=C(CCSc1nc2cccc(F)c2c(=O)n1-c1ccc(Cl)c(F)c1)Nc1ccc2c(c1)CCC2`, the inhibition was 3.09% (inactive).

Regarding `O=C(CSc1nc2ccccc2c(=O)n1-c1ccccc1)NC1CCCc2ccccc21` (stereo not given), the inhibition is -2% (inactive).

`O=C(CSc1nc2ccccc2c(=O)n1-c1cc(Cl)cc(Cl)c1)NC1Cc2ccccc2C1`: the inhibition is -3.26% (inactive).

As to `O=C(CCCSc1nc2cccc(F)c2c(=O)n1-c1ccc(Cl)c(F)c1)Nc1ccc2c(c1)CCC2`, the inhibition was -2.66% (inactive).

In the case of `O=C(CSc1nc2ccccc2c(=O)n1-c1ccccc1)Nc1ncc([N+](=O)[O-])s1`, the inhibition was -1.85% (inactive).

Take `O=C(CCCCSc1nc2cccc(F)c2c(=O)n1-c1ccc(F)c(Br)c1)Nc1ccc2c(c1)CCC2`: the inhibition was -1.81% (inactive).

As to `O=C(CSc1nc2cccc(F)c2c(=O)n1-c1ccc(Cl)c(Cl)c1)Nc1ccc2c(c1)CCC2`, the inhibition was -2.48% (inactive).

As for `O=C(CSc1nc2ccccc2c(=O)n1-c1ccccc1)Nc1nc2ccc([N+](=O)[O-])cc2s1`, the inhibition is -2.6% (inactive).

As for `O=C(CCCCSc1nc2cccc(F)c2c(=O)n1-c1ccc(Cl)c(Cl)c1)Nc1ccc2c(c1)CCC2`, the inhibition was -1.71% (inactive).

On to `O=C(CSc1nc2ccccc2c(=O)n1-c1ccccc1)Nc1cccc(-c2ccccc2)c1`, for which the inhibition was 0.04% (inactive).

For `O=C(CSc1nc2cccc(F)c2c(=O)n1-c1ccccc1)NC1Cc2ccccc2C1`, the inhibition was 0.89% (inactive).

Take `O=C(CCSc1nc2cccc(F)c2c(=O)n1-c1ccc(Cl)c(Cl)c1)Nc1ccc2c(c1)CCC2`: the inhibition is -1.05% (inactive).

As for `O=C(CSc1nc2ccccc2c(=O)n1-c1ccccc1)Nc1ccc2c(c1)OCO2`, the inhibition is 2.32% (inactive).

In the case of `O=C(CCSc1nc2cccc(F)c2c(=O)n1-c1ccc(F)c(F)c1)Nc1ccc2c(c1)CCC2`, the inhibition is -1.56% (inactive).

In the case of `O=C(CCCCSc1nc2cccc(F)c2c(=O)n1-c1cc(F)c(F)c(F)c1)Nc1ccc2c(c1)CCC2`, the inhibition is -1.19% (inactive).

For `O=C(CSc1nc2ccccc2c(=O)n1-c1ccccc1)Nc1nccs1`, the inhibition was -0.12% (inactive).

Regarding `Cc1nc2cc(NC(=O)CSc3nc4ccccc4c(=O)n3-c3ccccc3)ccc2s1`, the inhibition was 2.35% (inactive).

Take `O=C(CSc1nc2cccc(F)c2c(=O)n1-c1ccccc1)Nc1cccc2c1CCC2`: the inhibition was -1.2% (inactive).

For `O=C(CSc1nc2ccccc2c(=O)n1-c1ccccc1)NC1Cc2ccccc2C1`, the inhibition is -2% (inactive).

With `O=C(CCCSc1nc2cccc(F)c2c(=O)n1-c1ccc(F)c(Br)c1)Nc1ccc2c(c1)CCC2`, the inhibition is -2.67% (inactive).

With `Cc1csc(NC(=O)CSc2nc3ccccc3c(=O)n2-c2ccccc2)n1`, the inhibition is -3.31% (inactive).

Consider `O=C(CCCCSc1nc2ccccc2c(=O)n1-c1ccccc1)Nc1ccc2c(c1)CCC2`, for which the inhibition was 18.5% (inactive).

On to `O=C(CSc1nc2ccccc2c(=O)n1-c1ccc(F)c(Cl)c1)Nc1cccc2ccccc12`, for which the inhibition is -1.32% (inactive).

As to `O=C(CCCCSc1nc2cccc(F)c2c(=O)n1-c1ccc(Cl)c(F)c1)Nc1ccc2c(c1)CCC2`, the inhibition was -0.34% (inactive).

Take `O=C(CSc1nc2ccccc2c(=O)n1-c1ccccc1)Nc1cccc2c1CCC2`: the inhibition was 1.83% (inactive).

In the case of `O=C(CSc1nc2ccccc2c(=O)n1-c1ccccc1)N1CCCCCC1`, the inhibition is -1.69% (inactive).

Regarding `O=C(CCCSc1nc2cccc(F)c2c(=O)n1-c1ccc(F)c(F)c1)Nc1ccc2c(c1)CCC2`, the inhibition was -2.48% (inactive).

Turning to `O=C(CSc1nc2ccccc2c(=O)n1-c1ccc(Cl)c(Cl)c1)Nc1ccc2c(c1)OCO2`, the inhibition was -2.42% (inactive).

The test system of a further assay is West Nile virus-infected cells, antiviral inhibition. Described as above.
Details: not given
With `O=C(CSc1nc2cccc(F)c2c(=O)n1-c1cc(F)c(F)c(F)c1)Nc1ccc2c(c1)CCC2`, the IC50 (as a rule, the concentration at which inhibition is half-maximal) is 16.5 µM.

Take `O=C(CSc1nc2ccccc2c(=O)n1-c1cc(Cl)cc(Cl)c1)Nc1ccc2c(c1)CCC2`: the IC50 is 2.73 µM.

As to `O=C(CSc1nc2ccccc2c(=O)n1-c1ccccc1)Nc1ccc2c(c1)CCC2`, the IC50 was 9.17 µM and 11.7 µM.

Take `O=C(CSc1nc2ccccc2c(=O)n1-c1ccc(Cl)c(Cl)c1)Nc1ccc2c(c1)CCC2`: the IC50 is 8.09 µM.
